The values below come from patent publication US20230219904A1 (SYNGENTA CROP PROTECTION AG, priority 2020, published 2023).

Common to all, as to assay type: in vivo
Details in all cases: evaluated after 13 days

In assay [1] the test system is Amaranthus retoflexus (AMARE). The assay is described as follows: Pre-emergence herbicidal glasshouse test (Table B1). In short, it runs like this:
(§1)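 Plants were grown in standard soil under controlled glasshouse conditions (24/16° C, 14 hours light, 65% humidity) and treated by spraying at 500 g/h unless otherwise indicated. Percentage damage was evaluated after 13 days and expressed on a five-point scale.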

Assay [2] has as its system Setaria faberi (SETFA). The description is as above. In short, it runs like this: as §1
Assay [3] relates to Echinochloa crus-galh (ECHCG). The description is as above. In short, it runs like this:
as §1

Assay [4] concerns Abutilon theophrasti (ABUTH). Described as above. The method, boiled down:
as §1

In assay [5] the test system is Ipomoea hederacea (IPOHE). The description is as above. The method, boiled down: as §1
The test system of assay [6] is Amaranthus retoflexus (AMARE). In words: Post-emergence herbicidal glasshouse test (Table B1). In short, it runs like this:
as §1

Assay [7] deals with Setaria faberi (SETFA). The description is as above. The method, boiled down:
as §1

Assay [8] concerns Echinochloa crus-galh (ECHCG). The description is as above. The method, boiled down:
as §1

Assay [9] concerns Abutilon theophrasti (ABUTH). The description is as above. The method, boiled down: as §1
Assay [10] concerns Ipomoea hederacea (IPOHE). The description is as above. The method, boiled down:
as §1

Molecules are shown by their SMILES.

Regarding `COc1ccc(C(=O)Nc2nnnn2C)c(Cl)c1NC(=O)C(C)F` (stereo not drawn) [Compound 1.028, 2-chloro-3-(2-fluoropropanoylamino)-4-methoxy-N-(1-methyltetrazol-5-yl)benzamide], in [1] (applied at 500 g/h), the “PRE Application AMARE, percentage damage on five-point scale” value (shortened to “PRE Application AMARE, percentage damage”) was 5 (5=80-100%). For the same compound, in the assay on Setaria faberi (SETFA) [2] (applied at 500 g/h), the “PRE Application SETFA, percentage damage on five-point scale” value (shortened to “PRE Application SETFA, percentage damage”) is 3 (3=40-59%). Besides, in [3] (applied at 500 g/h), the “PRE Application ECHCG, percentage damage on five-point scale” value (shortened to “PRE Application ECHCG, percentage damage”) was 4 (4=60-79%). Further, the “PRE Application ABUTH, percentage damage on five-point scale” value (shortened to “PRE Application ABUTH, percentage damage”) in assay [4] (applied at 500 g/h) is recorded as 5 (5=80-100%). The “PRE Application IPOHE, percentage damage on five-point scale” value (shortened to “PRE Application IPOHE, percentage damage”) in assay [5] (applied) is listed as 3 (3=40-59%). In assay [6] (applied at 500 g/h), the “POST Application AMARE, percentage damage on five-point scale” value was 5 (5=80-100%). Further, the “POST Application SETFA, percentage damage on five-point scale” value with Setaria faberi (SETFA) [7] (applied at 500 g/h) is recorded as 4 (4=60-79%). Moreover, the “POST Application ECHCG, percentage damage on five-point scale” value in [8] (applied at 500 g/h) is recorded as 3 (3=40-59%). Moreover, the “POST Application ABUTH, percentage damage on five-point scale” value in assay [9] (applied at 500 g/h) is 5 (5=80-100%). Further, the “POST Application IPOHE, percentage damage on five-point scale” value in assay [10] (applied at 500 g/h) is given as 4 (4=60-79%).
For `Cn1nnnc1NC(=O)c1ccc(OC(F)F)c(N2CCCCC2=O)c1Cl` [Compound 1.023], the “PRE Application AMARE, percentage damage” value in assay [1] (applied at 125 g/ha) is given as 5 (5=80-100%). Further, the “PRE Application SETFA, percentage damage” value in the assay on Setaria faberi (SETFA) [2] (applied at 125 g/ha) is recorded as 5 (5=80-100%). For the same compound, the “PRE Application ECHCG, percentage damage” value in [3] (applied at 125 g/ha) was 5 (5=80-100%). The “PRE Application ABUTH, percentage damage” value in [4] (applied at 125 g/ha) is listed as 5 (5=80-100%). In addition, in assay [5] (applied at 125 g/ha), the “PRE Application IPOHE, percentage damage” value is reported as 2 (2=20-39%). Further, the “POST Application AMARE, percentage damage on five-point scale” value in assay [6] (applied at 125 g/ha) is listed as 5 (5=80-100%). The “POST Application SETFA, percentage damage on five-point scale” value with Setaria faberi (SETFA) [7] (applied at 125 g/ha) was 5 (5=80-100%). In addition, the “POST Application ECHCG, percentage damage on five-point scale” value in assay [8] (applied at 125 g/ha) is 5 (5=80-100%). In addition, the “POST Application ABUTH, percentage damage on five-point scale” value in [9] (applied at 125 g/ha) is recorded as 5 (5=80-100%). Further, in assay [10] (applied at 125 g/ha), the “POST Application IPOHE, percentage damage on five-point scale” value is recorded as 5 (5=80-100%).
As for `CCn1nnnc1NC(=O)c1ccc(OC(F)(F)F)c(NC(=O)C(F)F)c1Cl` [Compound 1.122], the “PRE Application AMARE, percentage damage” value in assay [1] (applied at 125 g/ha) was 5 (5=80-100%). For the same compound, the “PRE Application SETFA, percentage damage” value in the assay on Setaria faberi (SETFA) [2] (applied at 125 g/ha) is recorded as 3 (3=40-59%). Moreover, the “PRE Application ECHCG, percentage damage” value in assay [3] (applied at 125 g/ha) was 4 (4=60-79%). In assay [4] (applied at 125 g/ha), the “PRE Application ABUTH, percentage damage” value was 3 (3=40-59%). The “PRE Application IPOHE, percentage damage” value in assay [5] (applied at 125 g/ha) is recorded as 1 (1=0-19%). Moreover, the “POST Application AMARE, percentage damage on five-point scale” value in [6] (applied at 125 g/ha) is 5 (5=80-100%). Also, the “POST Application SETFA, percentage damage on five-point scale” value in the assay on Setaria faberi (SETFA) [7] (applied at 125 g/ha) is reported as 3 (3=40-59%). Moreover, in assay [8] (applied at 125 g/ha), the “POST Application ECHCG, percentage damage on five-point scale” value is 4 (4=60-79%). Besides, the “POST Application ABUTH, percentage damage on five-point scale” value in [9] (applied at 125 g/ha) is on record as 4 (4=60-79%). For the same compound, the “POST Application IPOHE, percentage damage on five-point scale” value in [10] (applied at 125 g/ha) is recorded as 2 (2=20-39%).
As to `CCCC(=O)Nc1c(OC(F)(F)F)ccc(C(=O)Nc2nnnn2C)c1Cl` [Compound 1.121], in [1] (applied at 500 g/h), the “PRE Application AMARE, percentage damage” value is on record as 5 (5=80-100%). Besides, the “PRE Application SETFA, percentage damage” value in the assay on Setaria faberi (SETFA) [2] (applied at 500 g/h) is listed as 1 (1=0-19%). Besides, in assay [3] (applied at 500 g/h), the “PRE Application ECHCG, percentage damage” value is given as 5 (5=80-100%). Further, the “PRE Application ABUTH, percentage damage” value in assay [4] (applied at 500 g/h) is listed as 4 (4=60-79%). Besides, the “PRE Application IPOHE, percentage damage” value in assay [5] (applied) is 2 (2=20-39%). Besides, in [6] (applied at 500 g/h), the “POST Application AMARE, percentage damage on five-point scale” value was 5 (5=80-100%). Moreover, the “POST Application SETFA, percentage damage on five-point scale” value in the assay with Setaria faberi (SETFA) [7] (applied at 500 g/h) was 5 (5=80-100%). Besides, the “POST Application ECHCG, percentage damage on five-point scale” value in assay [8] (applied at 500 g/h) is 5 (5=80-100%). Also, the “POST Application ABUTH, percentage damage on five-point scale” value in assay [9] (applied at 500 g/h) is listed as 5 (5=80-100%). Further, the “POST Application IPOHE, percentage damage on five-point scale” value in assay [10] (applied at 500 g/h) is recorded as 5 (5=80-100%).
Regarding `Cn1nnnc1NC(=O)c1ccc(OC(F)F)c(NC(=O)C2CC2)c1Cl` [Compound 1.019], the “PRE Application AMARE, percentage damage” value in assay [1] (applied at 125 g/ha) was 5 (5=80-100%). Also, the “PRE Application SETFA, percentage damage” value in the assay with Setaria faberi (SETFA) [2] (applied at 125 g/ha) was 5 (5=80-100%). Besides, in [3] (applied at 125 g/ha), the “PRE Application ECHCG, percentage damage” value is recorded as 5 (5=80-100%). In addition, the “PRE Application ABUTH, percentage damage” value in assay [4] (applied at 125 g/ha) was 5 (5=80-100%). For the same compound, the “PRE Application IPOHE, percentage damage” value in assay [5] (applied at 125 g/ha) is 5 (5=80-100%). The “POST Application AMARE, percentage damage on five-point scale” value in assay [6] (applied at 125 g/ha) was 5 (5=80-100%). The “POST Application SETFA, percentage damage on five-point scale” value in the assay with Setaria faberi (SETFA) [7] (applied at 125 g/ha) is on record as 5 (5=80-100%). Further, in [8] (applied at 125 g/ha), the “POST Application ECHCG, percentage damage on five-point scale” value is 5 (5=80-100%). The “POST Application ABUTH, percentage damage on five-point scale” value in assay [9] (applied at 125 g/ha) is given as 5 (5=80-100%). For the same compound, the “POST Application IPOHE, percentage damage on five-point scale” value in assay [10] (applied at 125 g/ha) is 5 (5=80-100%).
On to `Cc1cccnc1C(=O)Nc1c(OC(F)F)ccc(C(=O)Nc2nnnn2C)c1Cl` [Compound 1.093], for which the “PRE Application AMARE, percentage damage” value in [1] (applied at 125 g/ha) is given as 5 (5=80-100%). For the same compound, the “PRE Application SETFA, percentage damage” value in the assay with Setaria faberi (SETFA) [2] (applied at 125 g/ha) is given as 4 (4=60-79%). The “PRE Application ECHCG, percentage damage” value in assay [3] (applied at 125 g/ha) is given as 5 (5=80-100%). In addition, the “PRE Application ABUTH, percentage damage” value in assay [4] (applied at 125 g/ha) is given as 5 (5=80-100%). For the same compound, the “PRE Application IPOHE, percentage damage” value in assay [5] (applied at 125 g/ha) was 4 (4=60-79%). In [6] (applied at 125 g/ha), the “POST Application AMARE, percentage damage on five-point scale” value is given as 4 (4=60-79%). In addition, in the assay on Setaria faberi (SETFA) [7] (applied at 125 g/ha), the “POST Application SETFA, percentage damage on five-point scale” value is given as 4 (4=60-79%). Besides, in assay [8] (applied at 125 g/ha), the “POST Application ECHCG, percentage damage on five-point scale” value is reported as 5 (5=80-100%). The “POST Application ABUTH, percentage damage on five-point scale” value in [9] (applied at 125 g/ha) was 4 (4=60-79%). Moreover, in [10] (applied at 125 g/ha), the “POST Application IPOHE, percentage damage on five-point scale” value is 4 (4=60-79%).
